Key:
human DP2 receptor = target: T1, human DP2 receptor (Homo sapiens, UniProt Q9Y5Y4); test: DP2/CRTH2 radioligand binding assay using [3H]PGD2; conditions: membranes of HEK293 cells expressing recombinant human DP2, 1 nM [3H]PGD2; read-out: hDP2
T1 construct: expressed in transfected cells; membrane preparation
T1 sequence (Q9Y5Y4 1-395): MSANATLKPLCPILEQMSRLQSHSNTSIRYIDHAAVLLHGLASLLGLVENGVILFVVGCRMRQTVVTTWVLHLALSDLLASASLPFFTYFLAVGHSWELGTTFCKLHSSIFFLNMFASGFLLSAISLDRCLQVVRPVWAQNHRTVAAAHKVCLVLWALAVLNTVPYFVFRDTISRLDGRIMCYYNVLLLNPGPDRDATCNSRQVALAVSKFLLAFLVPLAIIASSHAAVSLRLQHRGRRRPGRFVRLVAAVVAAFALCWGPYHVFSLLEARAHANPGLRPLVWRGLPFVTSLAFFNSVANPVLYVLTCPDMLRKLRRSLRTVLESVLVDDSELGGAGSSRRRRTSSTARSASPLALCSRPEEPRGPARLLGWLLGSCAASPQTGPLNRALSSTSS
Method: The ability of a compound to bind to the human DP2 receptor is assessed via a radioligand binding assay using [^3H]PGD2. HEK293 cells stably expressing recombinant human DP2 are resuspended in 10 mM Hepes, 7.4 containing 1 mM DTT, lysed and centrifuged at 75,000×g to pellet the membranes. The membranes are resuspended in 10 mM Hepes, 7.4 containing 1 mM DTT and 10% glycerol to approximately 5 mg protein/ml. Membranes (2-10 μg protein/well) are incubated in 96-well plates with 1 nM [^3H]PGD2 and test compound in Assay Buffer (50 mM Hepes, 10 mM MnCl2, 1 mM EDTA, plus or minus 0.2% human serum albumin, pH 7.4) for 60 minutes at room temperature. The reactions are terminated by rapid filtration through Whatman GF/C glass fibre filter plates. The filter plates were pre-soaked in 0.33% polythylenimine for 30 minutes at room temperature then washed in Wash Buffer (50 mM Hepes, 0.5 M NaCl pH 7.4) prior to harvesting. After harvesting, the filter plates are washed 3 times with 1 ml cold Wash Buffer then dried. Scintillant is then added to the plates and the radioactivity retained on the filters is determined on a Packard TopCount (Perkin Elmer). Specific binding is determined as total radioactive binding minus non-specific binding in the presence of 10 μM PGD2. IC50s were determined using GraphPad prism analysis of drug titration curves.

[1] = tested on: mouse model of allergic rhinitis; test: Mouse allergic rhinitis model (OVA-induced sneezing and nasal rubbing); type: in vivo; conditions: 10 mg/kg administered as the sodium salt, oral gavage 1 hour prior to OVA challenge; significantly reduced, approximately
Method: The compounds ability to inhibit allergen-induced sneezing and nasal rubbing is assessed using a mouse model of allergic rhinitis. Methods were adapted from those detailed in Nakaya, M., et al. 2006, Laboratory Investigation, 86:917-926. Female BALB/c mice (20-25 g) are immunized by an intraperitoneal injection (i.p.) of 10 μg ovalbumin (OVA) complexed with alum in a volume 0.2 mL on days 0 and 7. Fourteen days later (day 21) mice are challenged intranasally with 20 μl of a 10 mg/mL solution of OVA. The challenge period occurs daily from days 21 to day 23. Mice (5-7/group) are randomly assigned to receive either compound or vehicle and are treated by oral gavage 1 hour prior to OVA challenge. The number of sneezes and nasal rubs are counted by an independent blinded observe during a period of 8 minutes immediately following OVA challenge on days 21, 23 and […]. A significant increase in allergen-induced sneezing and nasal rubbing occurs over the 3-day challenge period. Inhibition of this effect by select compounds is determined statistically using Graphpad prism.

IC50 (human DP2 receptor) [µM]	Compound	reduction of sneezing and nasal rubs versus vehicle-treated mice [1]
> 0.1	CN(C1CCc2c(c3cccnc3n2CC(=O)O)C1)S(=O)(=O)c1ccc(F)cc1 (stereo not drawn) [Compound 23, {6-[N-(4-fluoro-benzenesulfonyl)-N-methyl-amino]-7,8-dihydro-5H-pyrido[2,3-b]indol-9(6H)-yl}-acetic acid]	–
> 0.1	CN(C1CCc2c(c3nccnc3n2CC(=O)O)C1)S(=O)(=O)c1ccc(F)cc1 (stereo not drawn) [Compound 24, {8-[N-(4-fluoro-benzenesulfonyl)-N-methyl-amino]-6,7,8,9-tetrahydro-5H-pyrazino [2,3-b]indol-5-yl}acetic acid]	–
> 0.1	CN([C@H]1CCc2c(c3ncccc3n2CC(=O)O)C1)S(=O)(=O)c1ccc(F)cc1 (single isomer, unassigned) [Compound 11]	–

Further lines, the molecule ahead of its results:

Compound	IC50 (human DP2 receptor) [µM]	reduction of sneezing and nasal rubs versus vehicle-treated mice [1]
CN(C1CCc2c(c3ncccc3n2CC(=O)O)C1)S(=O)(=O)c1ccc(F)cc1 (racemic) [Compound 9, {8-[N-(4-fluoro-benzenesulfonyl)-N-methyl-amino]-6,7,8,9-tetrahydro-pyrido[3,2-b]indol-5-yl}-acetic acid]	< 0.1	40-50%
CN([C@@H]1CCc2c(c3ncccc3n2CC(=O)O)C1)S(=O)(=O)c1ccc(F)cc1 (single isomer, unassigned) [Compound 10]	< 0.1	–

Source: patent US20110301168A1, “CYCLOALKANE[B]AZAINDOLE ANTAGONISTS OF PROSTAGLANDIN D2 RECEPTORS” (AMIRA PHARMACEUTICALS, INC., priority 2008, published 2011)
